Where no end group is shown, it is not given here.

Results on two compounds are retold here after US9675646B2, “Tubular bioengineered smooth muscle structures” (WAKE FOREST UNIVERSITY HEALTH SCIENCES, priority 2012, dated 2017).

This assay relates to rabbit esophageal circular smooth muscle tissue constructs. The assay can be described thus: Real time isometric force generation of bioengineered esophageal smooth muscle constructs. The format is cell-based. As to conditions: isometric force transducer, tissue bath 37° C., constructs taken off chitosan scaffold, stretch baseline set to zero. An excerpt:
Tubular esophageal tissue was tissue-engineered to mimic the mechanical and physiological function of a native esophagus. Several concentrically aligned esophageal circular smooth muscle tissue constructs were bioengineered using collagen hydrogel. Three-dimensional smooth muscle tissue constructs were bioengineered. Rabbit esophageal constructs were bioengineered by laying down 5×10^5 rabbit esophageal circular smooth muscle cells in collagen gel on a Sylgard-coated plate with a central post. The smooth muscle constructs were placed around a 2.5 cm long hollow chitosan tube and biodegradable surgical glue was applied between the smooth muscle constructs and along their circumference. The constructs were maintained around the scaffold in culture for 5 days. The constructs were taken off the scaffold and tested to determine cholinergic contraction in response to Acetylcholine (Ach) and relaxation in response to vasoactive intestinal peptide (VIP). An isometric force transducer (Harvard Apparatus, Holliston, Mass.) was used to record real time force generated by the constructs. The constructs were kept incubated in a warm tissue bath keeping the tissue samples at conditions of 37° C.±1° C. The bioengineered tissue constructs were taken off the scaffold at day 15 for force generation measurement. […]

As for `CC(=O)OCC[N+](C)(C)C` [Ach, Acetylcholine], the “contraction (change in force generation)” value (FIG. 1) is recorded as 45 μN. Consider “vasoactive intestinal peptide (HSDAVFTDNYTRLRKQMAVKKYLNSILN; ends and bridges not checked; UniProt P01282 125-152, looked up) [VIP, relaxant peptide used to test construct relaxation]”, for which, where the note is “FIG. 2”, the “relaxation (change in force generation)” value is recorded as −35 μN.
